Laboratory results: publication PMC6436327, “Inhibition of Cytochrome P450 Activities by Sophora flavescens Extract and Its Prenylated Flavonoids in Human Liver Microsomes” (Evidence-based Complementary and Alternative Medicine : eCAM, 2019)
Where two headings read alike, the source gives them in different places.

Tests used:
Type in all cases: biochemical
[1] = target: T1, CYP1A2 (Homo sapiens, UniProt P05177); assay: phenacetin to acetaminophen, LC-MS/MS; details: microsomes
T1 construct: native enzyme in pooled human liver microsomes, phenacetin O-deethylation probe
T1 sequence (P05177 2-516): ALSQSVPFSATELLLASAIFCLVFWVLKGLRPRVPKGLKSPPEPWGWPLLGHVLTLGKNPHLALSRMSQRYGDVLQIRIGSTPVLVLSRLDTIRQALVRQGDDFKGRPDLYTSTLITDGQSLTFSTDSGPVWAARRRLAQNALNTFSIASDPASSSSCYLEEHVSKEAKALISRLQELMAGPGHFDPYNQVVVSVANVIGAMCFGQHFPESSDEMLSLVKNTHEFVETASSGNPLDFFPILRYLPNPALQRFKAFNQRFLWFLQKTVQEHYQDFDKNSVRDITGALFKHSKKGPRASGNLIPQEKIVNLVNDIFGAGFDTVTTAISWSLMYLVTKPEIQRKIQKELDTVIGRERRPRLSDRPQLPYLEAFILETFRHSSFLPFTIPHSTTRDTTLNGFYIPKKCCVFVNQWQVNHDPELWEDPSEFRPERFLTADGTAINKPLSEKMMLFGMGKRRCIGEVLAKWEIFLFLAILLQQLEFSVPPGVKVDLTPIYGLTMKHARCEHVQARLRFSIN
Excerpt: phenacetin to acetaminophen, LC-MS/MS on CYP1A2

[2] = target: T2, CYP2D6 (Homo sapiens, UniProt P10635); assay: dextromethorphan to dextrorphan, LC-MS/MS; details: microsomes, read-out: IC50 value / Kushenol A
T2 construct: native enzyme in pooled human liver microsomes, dextromethorphan O-demethylation probe
Excerpt: dextromethorphan to dextrorphan, LC-MS/MS on CYP2D6

[3] = target: T3, CYP2C8 (Homo sapiens, UniProt P10632); assay: rosiglitazone hydroxylation, LC-MS/MS; details: microsomes
T3 construct: methods text says paclitaxel
T3 sequence (P10632 1-490): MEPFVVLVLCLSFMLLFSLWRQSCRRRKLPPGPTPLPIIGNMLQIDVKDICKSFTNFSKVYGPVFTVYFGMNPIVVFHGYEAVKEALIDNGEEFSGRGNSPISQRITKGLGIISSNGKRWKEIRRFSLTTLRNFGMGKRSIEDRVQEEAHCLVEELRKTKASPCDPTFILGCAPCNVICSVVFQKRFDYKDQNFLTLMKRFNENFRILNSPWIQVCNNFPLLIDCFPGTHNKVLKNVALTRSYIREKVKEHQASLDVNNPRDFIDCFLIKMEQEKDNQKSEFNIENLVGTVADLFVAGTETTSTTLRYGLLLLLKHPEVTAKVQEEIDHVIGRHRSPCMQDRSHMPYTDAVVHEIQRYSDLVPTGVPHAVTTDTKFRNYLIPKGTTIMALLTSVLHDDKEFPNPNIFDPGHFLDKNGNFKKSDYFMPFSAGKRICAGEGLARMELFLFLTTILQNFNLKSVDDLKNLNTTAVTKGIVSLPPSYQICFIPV
Excerpt: rosiglitazone hydroxylation, LC-MS/MS on CYP2C8

[4] = target: T4, CYP2C19 (Homo sapiens, UniProt P33261); assay: S-mephenytoin 4-hydroxylation, LC-MS/MS; details: microsomes, read-out: IC50 value / Kushenol A
T4 construct: native enzyme in pooled human liver microsomes, S-mephenytoin 4-hydroxylation probe (methods text misprints CYP2C18)
Excerpt: S-mephenytoin 4-hydroxylation, LC-MS/MS on CYP2C19

[5] = target: T5, CYP3A4 (Homo sapiens, UniProt P08684); assay: midazolam […]'-hydroxylation, LC-MS/MS; parameters: native enzyme in pooled human liver microsomes, midazolam 1'-hydroxylation probe (CYP3A5 may contribute); details: microsomes, read-out: IC50 value / Kushenol A
[6] = target: T6, CYP2C9 (Homo sapiens, UniProt P11712); assay: diclofenac hydroxylation, LC-MS/MS; details: microsomes
T6 construct: methods text says tolbutamide
Excerpt: diclofenac hydroxylation, LC-MS/MS on CYP2C9

[7] = target: T7, CYP2B6 (Homo sapiens, UniProt P20813); assay: bupropion 6-hydroxylation, LC-MS/MS; details: microsomes
T7 construct: native enzyme in pooled human liver microsomes, bupropion 6-hydroxylation probe
T7 sequence (P20813 1-491): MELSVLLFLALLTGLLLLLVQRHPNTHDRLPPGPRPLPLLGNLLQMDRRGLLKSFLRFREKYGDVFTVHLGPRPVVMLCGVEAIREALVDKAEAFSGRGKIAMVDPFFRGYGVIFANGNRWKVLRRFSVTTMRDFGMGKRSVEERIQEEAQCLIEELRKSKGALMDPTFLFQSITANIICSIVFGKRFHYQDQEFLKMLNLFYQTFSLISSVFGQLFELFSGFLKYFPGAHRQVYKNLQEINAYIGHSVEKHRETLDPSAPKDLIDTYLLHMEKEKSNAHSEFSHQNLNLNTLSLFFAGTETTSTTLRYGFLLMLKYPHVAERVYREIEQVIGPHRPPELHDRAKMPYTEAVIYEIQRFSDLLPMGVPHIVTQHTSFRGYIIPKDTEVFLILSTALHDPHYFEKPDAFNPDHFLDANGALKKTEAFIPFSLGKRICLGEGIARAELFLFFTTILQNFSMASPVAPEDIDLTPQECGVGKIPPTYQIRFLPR
Excerpt: bupropion 6-hydroxylation, LC-MS/MS on CYP2B6

[8] = target: T8, CYP2A6 (Homo sapiens, UniProt P11509); assay: coumarin 7-hydroxylation, LC-MS/MS; details: human liver microsomes; no preincubation; NADPH-generating system, pH 7.4, 37°C; read-out: IC50 value / Kushenol A
T8 construct: native enzyme in pooled human liver microsomes, coumarin 7-hydroxylation probe
T8 sequence (P11509 1-494): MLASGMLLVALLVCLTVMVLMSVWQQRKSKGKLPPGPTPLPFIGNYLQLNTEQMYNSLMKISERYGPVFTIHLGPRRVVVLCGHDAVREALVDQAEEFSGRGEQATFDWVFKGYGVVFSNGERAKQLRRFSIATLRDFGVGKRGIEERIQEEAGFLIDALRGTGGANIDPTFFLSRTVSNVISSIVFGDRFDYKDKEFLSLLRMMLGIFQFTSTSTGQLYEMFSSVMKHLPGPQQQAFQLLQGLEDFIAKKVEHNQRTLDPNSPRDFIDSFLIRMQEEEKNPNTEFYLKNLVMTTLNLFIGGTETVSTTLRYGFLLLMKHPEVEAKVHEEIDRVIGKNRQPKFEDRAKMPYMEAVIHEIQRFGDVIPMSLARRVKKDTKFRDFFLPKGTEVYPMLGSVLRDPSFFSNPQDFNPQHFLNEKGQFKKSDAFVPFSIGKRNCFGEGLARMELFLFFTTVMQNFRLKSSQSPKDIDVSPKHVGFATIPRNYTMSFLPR
Excerpt: coumarin 7-hydroxylation, LC-MS/MS on CYP2A6

[9] = target: T5, CYP3A4; assay: time-dependent inactivation, midazolam […]'-hydroxylation, LC-MS/MS; parameters: native enzyme in pooled human liver microsomes, midazolam 1'-hydroxylation probe (CYP3A5 may contribute); details: microsomes
[10] = target: T5, CYP3A4; assay: as above; parameters: recombinant, baculovirus-insect cell expressed, commercial (BD Gentest)
[11] = read-out: IC50 value / Kushenol A
[12] = read-out: IC50 value / Kushenol C
[13] = read-out: IC50 value / Kushenol I
[14] = read-out: IC50 value / Leachianone A
[15] = read-out: IC50 value / Sophoraflavone G

T5 sequence (P08684 2-503): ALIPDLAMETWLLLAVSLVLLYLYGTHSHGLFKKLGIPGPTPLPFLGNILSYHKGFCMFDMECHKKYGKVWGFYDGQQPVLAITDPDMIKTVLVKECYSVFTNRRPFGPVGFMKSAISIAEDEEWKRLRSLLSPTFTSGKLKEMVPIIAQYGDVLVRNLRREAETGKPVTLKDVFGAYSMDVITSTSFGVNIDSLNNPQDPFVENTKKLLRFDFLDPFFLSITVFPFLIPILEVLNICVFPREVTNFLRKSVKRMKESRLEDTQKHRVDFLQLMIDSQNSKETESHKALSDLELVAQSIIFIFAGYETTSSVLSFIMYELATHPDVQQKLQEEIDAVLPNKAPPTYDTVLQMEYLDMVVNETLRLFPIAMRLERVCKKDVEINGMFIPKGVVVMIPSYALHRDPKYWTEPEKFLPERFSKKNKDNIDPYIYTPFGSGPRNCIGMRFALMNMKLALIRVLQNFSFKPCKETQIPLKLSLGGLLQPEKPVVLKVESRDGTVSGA
T2 sequence (P10635 whole entry): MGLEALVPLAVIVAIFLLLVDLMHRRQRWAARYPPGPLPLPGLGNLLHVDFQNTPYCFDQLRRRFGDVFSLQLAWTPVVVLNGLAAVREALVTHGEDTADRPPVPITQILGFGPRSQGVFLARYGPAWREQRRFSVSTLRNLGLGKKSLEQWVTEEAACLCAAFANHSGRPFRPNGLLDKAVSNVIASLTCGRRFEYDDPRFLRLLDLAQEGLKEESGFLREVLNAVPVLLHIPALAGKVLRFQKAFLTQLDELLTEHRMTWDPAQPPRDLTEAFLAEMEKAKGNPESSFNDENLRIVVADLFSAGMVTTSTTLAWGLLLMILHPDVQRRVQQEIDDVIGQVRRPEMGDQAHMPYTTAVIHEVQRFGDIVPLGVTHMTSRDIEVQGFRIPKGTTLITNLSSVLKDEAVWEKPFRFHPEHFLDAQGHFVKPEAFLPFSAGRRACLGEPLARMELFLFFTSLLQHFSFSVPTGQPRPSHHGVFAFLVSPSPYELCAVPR
T4 sequence (P33261 whole entry): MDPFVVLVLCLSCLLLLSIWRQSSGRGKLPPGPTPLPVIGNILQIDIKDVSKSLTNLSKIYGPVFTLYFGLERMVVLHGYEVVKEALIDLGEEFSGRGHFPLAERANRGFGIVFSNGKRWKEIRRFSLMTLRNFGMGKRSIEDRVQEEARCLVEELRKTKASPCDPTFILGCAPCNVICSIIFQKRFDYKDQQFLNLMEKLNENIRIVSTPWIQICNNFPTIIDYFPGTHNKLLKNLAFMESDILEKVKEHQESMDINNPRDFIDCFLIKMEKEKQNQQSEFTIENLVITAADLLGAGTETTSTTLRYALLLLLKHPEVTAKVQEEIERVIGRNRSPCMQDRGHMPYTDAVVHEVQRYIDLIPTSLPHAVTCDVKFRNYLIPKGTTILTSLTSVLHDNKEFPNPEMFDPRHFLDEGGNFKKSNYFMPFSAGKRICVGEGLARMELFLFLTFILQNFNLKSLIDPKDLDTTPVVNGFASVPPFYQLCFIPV
T6 sequence (P11712 whole entry): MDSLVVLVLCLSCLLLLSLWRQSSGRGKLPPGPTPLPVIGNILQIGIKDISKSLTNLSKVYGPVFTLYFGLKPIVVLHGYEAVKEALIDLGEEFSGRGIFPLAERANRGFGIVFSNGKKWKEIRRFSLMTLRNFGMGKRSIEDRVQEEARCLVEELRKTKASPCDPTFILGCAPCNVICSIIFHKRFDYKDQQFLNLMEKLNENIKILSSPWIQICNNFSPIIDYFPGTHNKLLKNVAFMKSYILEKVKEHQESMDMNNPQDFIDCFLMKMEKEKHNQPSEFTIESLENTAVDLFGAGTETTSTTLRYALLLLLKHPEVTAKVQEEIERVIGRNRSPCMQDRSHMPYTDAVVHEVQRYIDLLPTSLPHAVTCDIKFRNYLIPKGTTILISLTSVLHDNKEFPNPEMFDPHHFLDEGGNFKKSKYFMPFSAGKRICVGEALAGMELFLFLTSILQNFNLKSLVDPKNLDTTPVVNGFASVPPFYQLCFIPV

For `C=C(C)[C@H](CC=C(C)C)Cc1c(O)cc(O)c2c1O[C@H](c1ccccc1O)CC2=O` [Kushenol A], the IC50 [1, 11] was over 50 µM, the IC50 [2] was over 50 µM and the IC50 [3, 11] was over 50 µM. For the same molecule, the IC50 [4] was over 50 µM, the IC50 [5] was over 50 µM and the IC50 [6, 11] was over 50 µM. The IC50 [7, 11] was over 50 µM and the IC50 [8] was over 50 µM.
Molecule `C=C(C)[C@H](CC=C(C)C)Cc1c(O)cc(O)c2c(=O)c(O)c(-c3ccc(O)cc3O)oc12` [Kushenol C] has an IC50 [1, 12] of 5 µM, an IC50 [2] of over 50 µM and an IC50 [3, 11] of over 50 µM. For the same molecule, the IC50 [4] was over 50 µM, the IC50 [5] was over 50 µM and the IC50 [6, 12] was 9.3 µM. It also gave an IC50 [7, 11] of over 50 µM.
Molecule `C=C(C)[C@H](CC=C(C)C)Cc1c(O)cc(OC)c2c1O[C@H](c1ccc(O)cc1O)[C@@H](O)C2=O` [Kushenol I] has an IC50 [1, 11] of over 50 µM, an IC50 [2] of over 50 µM and a KI (inactivation) [9] of 0.24 µM. The IC50 [3, 13] was 0.67 µM, the IC50 [4] was over 50 µM and the IC50 [5] was over 50 µM. It also gave a KI (inactivation) [10] of 0.88 µM, an IC50 [6, 13] of 7.35 µM and an IC50 [7, 11] of over 50 µM.
`C=C(C)[C@H](CC=C(C)C)Cc1c(O)c(CC=C(C)C)c(O)c2c1O[C@H](c1ccc(O)cc1O)[C@@H](O)C2=O` [Kushenol M] was tested, and the IC50 [1, 11] was over 50 µM, the IC50 [2] was over 50 µM and the IC50 [3, 11] was over 50 µM. It also gave an IC50 [4] of over 50 µM, an IC50 [5] of over 50 µM and an IC50 [6, 11] of over 50 µM. The IC50 [7, 11] was over 50 µM.
`C=C(C)[C@H](CC=C(C)C)Cc1c(O)cc(O)c2c1O[C@H](c1ccc(O)cc1OC)CC2=O` [Leachianone A] was tested, and the IC50 [1, 11] was over 50 µM, the IC50 [2] was over 50 µM and the IC50 [3, 14] was 0.75 µM. For the same molecule, the IC50 [4] was over 50 µM, the IC50 [5] was over 50 µM and the IC50 [6, 11] was over 50 µM. For the same molecule, the IC50 [7, 14] was 5.74 µM.
Work on `C=C(C)[C@H](CC=C(C)C)Cc1c(O)cc(O)c2c1O[C@H](c1ccc(O)cc1O)CC2=O` [Sophoraflavone G] yielded an IC50 [1, 15] of 2.26 µM, an IC50 [2] of over 50 µM and an IC50 [3, 15] of 0.32 µM. For the same molecule, the IC50 [5] was over 50 µM, the IC50 [6, 15] was 1.25 µM and the IC50 [7, 15] was 2.42 µM. For the same molecule, the IC50 [8] was over 50 µM.
